Assay [1] is described as follows: antioxidant activity using β-carotene-linoleate model system. The following applies: β-carotene-linoleate method. The source says: The water extract obtained, was screened for antioxidant activity using β-carotene-linoleate model systems.
Assay [2] is described as follows: antioxidant activity using DPPH method. The text has this: The water extract obtained in the above methods was screened for antioxidant activity using 1,1-diphenyl-2-picrylhydrazyl (DPPH) [J. Agricultural and Food Chemistry, 50, 81-86, 2002].
In general terms: DPPH is a stable violet radical that fades when it is reduced.

As for `COc1ccc(O)c(C(C)(C)C)c1` [BHA, butylated hydroxyanisole], the antioxidant activity in assay [1] (100 ppm) is 81%; in assay [1] (200 ppm), 89%; in assay [2] (25 ppm), 71%; in assay [2] (50 ppm), 94%.

The values above are taken from patent US7431958B2, “Use of fraction from Cinnamomum zeylanicum for preserving food” (Council of Scientific & Industrial Research, priority 2003, dated 2008).
